From patent US20250179078A1, “INHIBITORS OF NLRP3” (PTC THERAPEUTICS, INC., priority 2022, published 2025) come the findings set out here.

The target of the experiment is T1, NLRP3 (Homo sapiens, UniProt Q96P20).
T1 construct: host or cells: THP-1 cells differentiated with PMA
In words: IL-1β Secretion Assay (NLRP3-dependent IL1β secretion in THP1 cells). In kind it is cell-based. Particulars: PMA-differentiated THP-1 cells; compounds incubated 20 h; 2.5 μM Nigericin 3 h; HTRF IL-1β readout; read-out: IC50 IL-1β Inhibition. Summed up:
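THP-1 cells differentiated with 100 ng/mL PMA for 24 h, then given compound (7-point 3-fold series, 1:200 from DMSO) for 20 h in RPMI+5% FBS. NLRP3 activated with 2.5 μM nigericin for 3 h; secreted IL-1β measured by HTRF; IC50 from logistic fit of % inhibition.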

T1 sequence (Q96P20 whole entry): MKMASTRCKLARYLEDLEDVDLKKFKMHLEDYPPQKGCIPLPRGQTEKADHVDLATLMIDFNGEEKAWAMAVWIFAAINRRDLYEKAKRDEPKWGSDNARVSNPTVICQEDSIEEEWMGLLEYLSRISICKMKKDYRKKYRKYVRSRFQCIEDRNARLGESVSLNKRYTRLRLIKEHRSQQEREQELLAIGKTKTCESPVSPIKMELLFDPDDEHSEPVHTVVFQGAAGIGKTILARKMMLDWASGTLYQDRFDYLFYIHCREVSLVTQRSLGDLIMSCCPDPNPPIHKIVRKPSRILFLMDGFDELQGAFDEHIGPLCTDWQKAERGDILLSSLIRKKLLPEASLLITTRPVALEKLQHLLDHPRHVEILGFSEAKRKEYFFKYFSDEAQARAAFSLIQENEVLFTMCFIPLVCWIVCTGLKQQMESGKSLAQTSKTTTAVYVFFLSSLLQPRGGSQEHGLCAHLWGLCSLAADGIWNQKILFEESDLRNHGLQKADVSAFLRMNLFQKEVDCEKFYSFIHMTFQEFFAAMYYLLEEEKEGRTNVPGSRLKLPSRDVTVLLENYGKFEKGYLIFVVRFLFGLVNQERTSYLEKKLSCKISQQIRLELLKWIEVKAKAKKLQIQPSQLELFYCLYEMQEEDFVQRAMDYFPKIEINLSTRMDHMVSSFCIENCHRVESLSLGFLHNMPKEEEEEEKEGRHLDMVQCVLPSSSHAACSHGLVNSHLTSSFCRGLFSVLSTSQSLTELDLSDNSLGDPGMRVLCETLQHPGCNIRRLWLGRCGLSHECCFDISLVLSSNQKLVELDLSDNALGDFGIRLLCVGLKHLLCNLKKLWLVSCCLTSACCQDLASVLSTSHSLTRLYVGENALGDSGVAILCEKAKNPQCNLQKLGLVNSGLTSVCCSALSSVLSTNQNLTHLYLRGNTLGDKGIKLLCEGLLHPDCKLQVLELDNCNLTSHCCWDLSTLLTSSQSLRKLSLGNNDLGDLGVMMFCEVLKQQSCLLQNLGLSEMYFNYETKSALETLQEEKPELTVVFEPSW

`Cc1cc2c(-c3ccc(Cl)cc3OC(F)F)nnc(N[C@@H]3CCCN(C)C3)n2n1` [Compound 358, 4-[4-chloro-2-(difluoromethoxy)phenyl]-2-methyl-N-[(3R)-1-methylpiperidin-3-yl]pyrazolo[1,5-d][1,2,4]triazin-7-amine]: the concentration for half-maximal inhibition (IC50) is less than 1 nM. For `Cc1ccc(-c2nnc(N[C@@H]3CCCC[C@H]3O)n3cncc23)c(CC(F)(F)F)c1` [Compound 286, (1R,2R)-2-({1-[4-methyl-2-(2,2,2-trifluoroethyl)phenyl]imidazo[1,5-d][1,2,4]triazin-4-yl}amino)cyclohexan-1-ol], the half-maximal inhibitory concentration (IC50) was 1 to 10 nM. In the case of `CCN1CCC[C@@H](Nc2nnc(-c3ccc(C(F)(F)F)cc3F)c3cccn23)C1` [Compound 20, N-[(3R)-1-ethylpiperidin-3-yl]-1-[2-fluoro-4-(trifluoromethyl)phenyl]pyrrolo[1,2-d][1,2,4]triazin-4-amine], the IC50 lay within 1 to 10 nM. Consider `C[C@]1(O)C[C@@H](Nc2nnc(-c3ccc(C(F)(F)F)cc3OC(F)F)c3cncn23)C1` [Compound 187, (1s,3s)-3-({1-[2-(difluoromethoxy)-4-(trifluoromethyl)phenyl]imidazo[1,5-d][1,2,4]triazin-4-yl}amino)-1-methylcyclobutan-1-ol], for which the IC50 was 1 to 10 nM. For `Cc1cc2c(-c3ccc(C(F)(F)F)cc3CC(F)(F)F)nnc(N[C@@H]3CCCC[C@H]3O)n2n1` [Compound 389, (1R,2R)-2-({2-methyl-4-[2-(2,2,2-trifluoroethyl)-4-(trifluoromethyl)phenyl]pyrazolo[1,5-d][1,2,4]triazin-7-yl}amino)cyclohexan-1-ol] the value was 1 to 10 nM. For the compound `CC(Nc1nnc(-c2ccc(C3CC3)cc2CC(F)(F)F)c2cncn12)c1cccc(O)c1` (stereo not drawn) [Compound 354, 3-[1-({1-[4-cyclopropyl-2-(2,2,2-trifluoroethyl)phenyl]imidazo[1,5-d][1,2,4]triazin-4-yl}amino)ethyl]phenol], the IC50 lay in the range of 1 to 10 nM. `Cc1cc2c(-c3ccc(C4CC4)cc3C(F)F)nnc(N[C@@H]3CCCN(C)C3)n2c1` [Compound 14, 1-[4-cyclopropyl-2-(difluoromethyl)phenyl]-7-methyl-N-[(3R)-1-methylpiperidin-3-yl]pyrrolo[1,2-d][1,2,4]triazin-4-amine]: the IC50 lay within 1 to 10 nM. As for `COc1ccc(-c2nnc(NC3CCNC3=O)n3cncc23)c(OC(F)F)c1` (stereo not drawn) [Compound 269, 3-({1-[2-(difluoromethoxy)-4-methoxyphenyl]imidazo[1,5-d][1,2,4]triazin-4-yl}amino)pyrrolidin-2-one], the concentration for half-maximal inhibition (IC50) is 1 to 10 nM. For `O[C@H]1CCCC[C@@H]1Nc1nnc(-c2ccc(C(F)(F)F)cc2OC(F)(F)F)c2cccn12` [Compound 121, (1S,2S)-2-({1-[2-(trifluoromethoxy)-4-(trifluoromethyl)phenyl]pyrrolo[1,2-d][1,2,4]triazin-4-yl}amino)cyclohexan-1-ol], the half-maximal inhibitory concentration (IC50) lay in the range of 10 to 100 nM.

Consider `O[C@@H]1CCCC[C@H]1Nc1nnc(-c2ccc(C(F)(F)F)cc2CC(F)(F)F)c2cncn12` [Compound 282, (1R,2R)-2-({1-[2-(2,2,2-trifluoroethyl)-4-(trifluoromethyl)phenyl]imidazo[1,5-d][1,2,4]triazin-4-yl}amino)cyclohexan-1-ol], for which the IC50 was less than 1 nM. `C[C@]1(O)C[C@@H](Nc2nnc(-c3ccc(C(F)(F)F)cc3OC(F)(F)F)c3ccnn23)C1` [Compound 397, (1s,3s)-1-methyl-3-({4-[2-(trifluoromethoxy)-4-(trifluoromethyl)phenyl]pyrazolo[1,5-d][1,2,4]triazin-7-yl}amino)cyclobutan-1-ol]: the 50% inhibitory concentration (IC50) lay in the range of 1 to 10 nM. On to `CCN1CCC[C@@H](Nc2nnc(-c3ccc(C(F)(F)F)cc3OC(F)(F)F)c3cccn23)C1` [Compound 119, N-[(3R)-1-ethylpiperidin-3-yl]-1-[2-(trifluoromethoxy)-4-(trifluoromethyl)phenyl]pyrrolo[1,2-d][1,2,4]triazin-4-amine], for which the IC50 was less than 1 nM. In the case of `O[C@@H]1COCC[C@H]1Nc1nnc(-c2ccc(C(F)(F)F)cc2CC(F)(F)F)c2cncn12` [Compound 313, (3S,4R)-4-({1-[2-(2,2,2-trifluoroethyl)-4-(trifluoromethyl)phenyl]imidazo[1,5-d][1,2,4]triazin-4-yl}amino)oxan-3-ol], the IC50 is 1 to 10 nM. Take `CCN1CCC[C@@H](Nc2nnc(-c3ccc(OC(F)F)cc3OC(F)(F)F)c3cccn23)C1` [Compound 85, 1-[4-(difluoromethoxy)-2-(trifluoromethoxy)phenyl]-N-[(3R)-1-ethylpiperidin-3-yl]pyrrolo[1,2-d][1,2,4]triazin-4-amine]: the concentration for half-maximal inhibition (IC50) was less than 1 nM. In the case of `Cc1ccc(-c2nnc(N[C@@H]3CCCN(C)C3)n3cc(C)cc23)c(OC(F)F)c1` [Compound 25, 1-[2-(difluoromethoxy)-4-methylphenyl]-7-methyl-N-[(3R)-1-methylpiperidin-3-yl]pyrrolo[1,2-d][1,2,4]triazin-4-amine], the concentration for half-maximal inhibition (IC50) is 1 to 10 nM. Take `CCN1CCC[C@@H](Nc2nnc(-c3ccc(OC)cc3OC(F)(F)F)c3cc(C)nn23)C1` [Compound 371, N-[(3R)-1-ethylpiperidin-3-yl]-4-[4-methoxy-2-(trifluoromethoxy)phenyl]-2-methylpyrazolo[1,5-d][1,2,4]triazin-7-amine]: the half-maximal inhibitory concentration (IC50) was in the range of 1 to 10 nM. For `COc1ccc(-c2nnc(N[C@@H]3CCCN(CCO)C3)n3ccc(F)c23)c(OC(F)F)c1` [Compound 57, 2-[(3R)-3-({1-[2-(difluoromethoxy)-4-methoxyphenyl]-8-fluoropyrrolo[1,2-d][1,2,4]triazin-4-yl}amino)piperidin-1-yl]ethan-1-ol] the value was 10 to 100 nM; for `COc1ccc(-c2nnc(N[C@@H]3CCCC[C@H]3O)n3cncc23)c(CC(F)(F)F)c1` [Compound 237, (1R,2R)-2-({1-[4-methoxy-2-(2,2,2-trifluoroethyl)phenyl]imidazo[1,5-d][1,2,4]triazin-4-yl}amino)cyclohexan-1-ol], 1 to 10 nM; for `CN1CCC[C@@H](Nc2nnc(-c3ccc(OC(F)F)cc3OC(F)(F)F)c3cccn23)C1` [Compound 44, 1-[4-(difluoromethoxy)-2-(trifluoromethoxy)phenyl]-N-[(3R)-1-methylpiperidin-3-yl]pyrrolo[1,2-d][1,2,4]triazin-4-amine], less than 1 nM. For the compound `COc1ccc(-c2nnc(N[C@@H]3CCOC[C@H]3O)n3cncc23)c(OC(F)F)c1` [Compound 268, (3S,4R)-4-({1-[2-(difluoromethoxy)-4-methoxyphenyl]imidazo[1,5-d][1,2,4]triazin-4-yl}amino)oxan-3-ol], the IC50 was in the range of 1 to 10 nM. `CN1CCC[C@@H](Nc2nnc(-c3ccc(Br)cc3C(F)(F)F)c3cncn23)C1` [Compound 200, 1-[4-bromo-2-(trifluoromethyl)phenyl]-N-[(3R)-1-methylpiperidin-3-yl]imidazo[1,5-d][1,2,4]triazin-4-amine]: the half-maximal inhibitory concentration (IC50) lay in the range of 1 to 10 nM. The figure for `COc1ccc(-c2nnc(NCc3nccn3C)n3cccc23)c(OC(F)(F)F)c1` [Compound 69, 1-[4-methoxy-2-(trifluoromethoxy)phenyl]-N-[(1-methyl-1H-imidazol-2-yl)methyl]pyrrolo[1,2-d][1,2,4]triazin-4-amine] is 10 to 100 nM. For `O[C@@H]1CCCC[C@H](Nc2nnc(-c3ccc(C(F)(F)F)cc3CC(F)(F)F)c3cccn23)C1.O[C@H]1CCCC[C@@H](Nc2nnc(-c3ccc(C(F)(F)F)cc3CC(F)(F)F)c3cccn23)C1` [Compound 128, (1S,3R)-3-({1-[2-(2,2,2-trifluoroethyl)-4-(trifluoromethyl)phenyl]pyrrolo[1,2-d][1,2,4]triazin-4-yl}amino)cycloheptan-1-ol AND (1R,3S)-3-({1-[2-(2,2,2-trifluoroethyl)-4-(trifluoromethyl)phenyl]pyrrolo[1,2-d][1,2,4]triazin-4-yl}amino)cycloheptan-1-ol] the value was 1 to 10 nM; for `Cc1cc(C(F)(F)F)cc(OC(F)F)c1-c1nnc(N[C@@H]2CCCN(C)C2)n2cccc12` [Compound 49, 1-[2-(difluoromethoxy)-6-methyl-4-(trifluoromethyl)phenyl]-N-[(3R)-1-methylpiperidin-3-yl]pyrrolo[1,2-d][1,2,4]triazin-4-amine], 10 to 100 nM. In the case of `CCN1CCC[C@@H](Nc2nnc(-c3ccc(C(F)(F)F)cc3OC3CC3)c3cccn23)C1` [Compound 178, 1-[2-(cyclopropyloxy)-4-(trifluoromethyl)phenyl]-N-[(3R)-1-ethylpiperidin-3-yl]pyrrolo[1,2-d][1,2,4]triazin-4-amine], the IC50 lay in the range of 1 to 10 nM. Consider `CN1CCC[C@@H](Nc2nnc(-c3ccc(Br)cc3OC(F)F)c3cncn23)C1` [Compound 195, 1-[4-bromo-2-(difluoromethoxy)phenyl]-N-[(3R)-1-methylpiperidin-3-yl]imidazo[1,5-d][1,2,4]triazin-4-amine], for which the half-inhibitory concentration (IC50) is less than 1 nM. For `COc1cc(C)c(-c2nnc(N[C@@H]3CCCN(C)C3)n3cccc23)c(F)c1` [Compound 118, 1-(2-fluoro-4-methoxy-6-methylphenyl)-N-[(3R)-1-methylpiperidin-3-yl]pyrrolo[1,2-d][1,2,4]triazin-4-amine] the value was less than 1 nM. Regarding `Cc1ccc(-c2nnc(NC3CCNC3=O)n3cccc23)c(CC(F)(F)F)c1` (stereo not drawn) [Compound 157, 3-({1-[4-methyl-2-(2,2,2-trifluoroethyl)phenyl]pyrrolo[1,2-d][1,2,4]triazin-4-yl}amino)pyrrolidin-2-one], the half-inhibitory concentration (IC50) was in the range of 1 to 10 nM. Consider `COc1ccc(-c2nnc(N[C@@H]3CCCN(C)C3)n3cc(C)cc23)c(OC(F)(F)F)c1` [Compound 131, 1-[4-methoxy-2-(trifluoromethoxy)phenyl]-7-methyl-N-[(3R)-1-methylpiperidin-3-yl]pyrrolo[1,2-d][1,2,4]triazin-4-amine], for which the IC50 is less than 1 nM. As to `CC(Nc1nnc(-c2ccc(C(F)(F)F)cc2OC(F)(F)F)c2cccn12)c1cccc(O)c1` (stereo not drawn) [Compound 142, 3-[1-({1-[2-(trifluoromethoxy)-4-(trifluoromethyl)phenyl]pyrrolo[1,2-d][1,2,4]triazin-4-yl}amino)ethyl]phenol], the IC50 lay within 1 to 10 nM.
